# Laboratory results reported in US20030073654A1, “Stabilized transient gene expression” (Genespan Corporation, priority 1996, published 2003).
# “Also recorded” adds a separate entry of the source.
# Assays:
# [1] = test system: SW480 P3 (ATCC #CCL228) human colon carcinoma cells; experiment: Screening assay for enhancement of transient expression (β-galactosidase gene, liposomal transfection, 6-well plates); format: cell-based
# Excerpt: These parameters are called the “X” factor, the “G” factor, and the “K” factor. [formula]
# This factor reflects the extent to which a chemical compound added to a transfected cell enhances stabilizes transient expression for the first four days following transfection. […] For example, if expression is doubled in the presence of a compound, […]. […] X may be calculated similarly when the agent in question is a mixture of more than one chemical compound.
# Cumulative protein expression, i.e., the values for “A” and “C”, is measured by summing the values measured daily in aliquots of the cultured cells.
# 2. G factors. G factors differ from the X factor only with respect to the time period evaluated. For calculating a G factor, the amount of protein expressed is measured from days 4-7 or days 4-14, where day 0 is the day on which the foreign DNA is added to the cells. The subscripts denote which of the two time periods provided the basis for measurement. […] As for the X factor, [formula]
# 3. K factor. The K factor is the ratio of the rate constants for the change in the foreign DNA expression in control transfected cells and in cells exposed to a chemical compound of the subject invention. K is determined according to the following equation: [formula]
# wherein “k(DNA)” is the first order rate constant for the change in concentration of the protein expressed from the transgenic DNA, which is expressing protein as a function of time, i.e., [formula]
# Values for k(DNA) are derived by using a computer program that plots the log of the foreign protein concentration against time, using the results of transgenic protein measurements that begin about 24 hours after the foreign DNA has been added to the cell. […] However, the program calculates a “best fit” line for each data set, and determines the slope of that portion of the resulting line that corresponds to the period during which protein production is changing. […] Thus, the slope is calculated during this period of decline to provide values for k(DNA) and K that can be compared for the purpose of comparing the efficacy of different chemical compounds.
# SW480 P3 (ATCC #CCL228) human colon carcinoma cells (typically, 1×10^6 cells) were plated in the wells of a 6-well tissue culture plate. The number of wells plated reflected the number of days post-transfection during which the experiment would proceed. Each well contained 1 ml of complete media from a 30 ml stock solution containing: 26.4 ml RPMI tissue culture medium, 4 mM L-glutamine, 3.0 ml fetal bovine serum, and 10 μg/ml gentamicin. Cells were cultured at 37° C. in a CO2 incubator with 10% CO2 for 24 hours after being plated, during which time the cells adhered to the plates.
# After the 24 hour pre-incubation step, the transfection step was carried out by removing the RPMI and adding 900 μL OPTI-MEM® (Gibco) medium containing 2 μg of VR1412 DNA (Vical, Inc., San Diego, Calif.), which expresses the bacterial β-galactosidase gene under the control of a cytomegalovirus promoter, and 8 μg of a mixture of cationic lipid (1,2-dimyristyloxyproply-3-dimethyl-hydroxyethyl ammonium bromide (e.g., “DMRIE/DOPE”) mixed in equimolar proportions with dioleoylphosphatidylethanolamine) to yield a lipid:DNA molar ratio of 0.99:1. It should be noted that typical transient transfection protocols employ 10 μg DNA per 10^6 cells, but the protocol described here uses less DNA in order to reduce toxicity to the cells. The plates were then incubated for 4 hours at 37° C.
# After the 4 hour incubation step, 100 μl of heat deactivated fetal bovine serum (to stop transfection), plus 12.0 μl of 50 mg/ml gentamicin were added to each well.
# [2] = test system: SW480 cells; experiment: Transient expression in HPBr hollow fiber perfusion bioreactor (2-week β-galactosidase production); format: cell-based, human; conditions: relatively high rotational speed
# Method: A series of four lipofection-based gene transfection experiments were conductive in a high performance hollow fiber perfusion prototype bioreactor device (hereafter referred to as the […] device) in a Genespan prototype incubator instrument. The device consists essentially of a sterile chamber through which two sets of hollow fibers are passed. Culture medium is continuously circulated through one set of fibers, while gases required (e.g., oxygen and carbon dioxide) for cell growth are passed through the second set of fibers. The fibers are composed of a porous material through which gases and nutrients can pass in one direction, while waste molecules produced by the cells growing within the chamber can pass in the other direction. Cells growing in the device may remain in suspension, or may attach to the outer surfaces of both sets of hollow fibers.
# A useful feature of the HPBr device is that the cells can be agitated by rotating the chamber through which the tubes pass. […]
# Daily samples (about 1.5 ml) of cells and supernatant were taken from the cell compartment of each bioreactor and an equal volume of fresh media was added to replace it. Cell counts and viabilities were determined, and […] were lysed and retained for β-galactosidase determination using the spectrophotometric method described in Example 1. […]
substance,measurement,setting,value
chondroitin sulfate,effect on transient expression,[1],capable of prolonging transient expression
same,effect on transient expression when present before or during the transfection step,"[1]; polyanionic carbohydrates, liposomal transfection",allowed the transfection to proceed unimpeded; also recorded: enhanced transient expression
same,cell adhesion to microcarrier,[2],enabled the anchorage-dependent cells to adhere well to the microcarrier
